{"source": "paper PMC7203245", "about": "“Lacosamide intake during pregnancy increases the incidence of foetal malformations and symptoms associated with schizophrenia in the offspring of mice” (Scientific Reports, 2020)", "key": {"adult male mice [1]": {"test_system": "adult male mice", "test": "Tail suspension test", "type": "in vivo", "details": "5 minutes", "procedure": "(§1) All trials were performed by an experimenter blind to the drug treatment.\nTail suspension test. Depression-like behaviour in mice was determined by measuring the time spent immobile in the tail suspension test. Mice were suspended above the floor by attaching the end of their tail to wire netting, and the time spent immobile during a 5 min test session was measured."}, "pups": {"test_system": "pups", "test": "Neonatal behavioural tests of Fox's battery (developmental landmarks, locomotion, reflexes)", "type": "in vivo, mice", "details": "P1 to P13; dams given 40 or 120 mg/kg during gestation", "procedure": "In this part of the study, dams were treated until the day of delivery. After analysing the embryo toxicity data, the treatments were categorized as controls (saline vehicle solution alone), low dose (40 mg/kg) and high dose (120 mg/kg). […] The day of birth was designated as postnatal day (P) P0 and the litter size delivered by each dam was recorded, checking each pup for gross abnormalities. Pups were nursed by their natural dams until weaning and from PD 2, the pups were weighed and neonatal behavioural tests were carried out on 12 control mice, 12 low dose and 10 high dose mice from 7 litters. […]\nThe animal was placed face up, and the time taken to turn over and adopt a prone position with all four feet on the ground was assessed. […]\nA mouse was placed at the edge of the table, with its forepaws and head extending over the edge. The response was scored as positive if the mouse turned around and crawled away at least 45° from the “cliff”. […]\nThe animal was placed face down on a 30° incline and the latency to turn 180° was recorded. […]\nThe total number of degrees turned by the pup during a 30 s period was recorded. […] The number of degrees was only scored in terms of completed 90° segments.\nThe latency of a mouse to walk a distance exceeding its body length on all four legs was measured on a flat surface covered with green paper. […]"}, "adult male mice [2]": {"test_system": "adult male mice", "test": "Predator test", "type": "in vivo", "procedure": "as §1\nPredator test. The predator test was performed in a rectangular arena (55 x 40 x 40 cm) where a small tube was placed in a corner. The subject mouse was first placed in the area with the empty tube for 5 mins and afterwards, the tube was filled with material from a cage that housed a rat and the mice were allowed to explore the entire fear test box for 10 mins. The time spent by the mice sniffing the tube full of the rat’s material was measured with the aid of the camera fitted to the top of the box."}, "adult male mice [3]": {"test_system": "adult male mice", "test": "Dark-light emergence task", "type": "in vivo", "details": "40 mg/kg in utero; 5 minutes", "procedure": "as §1\nDark-light emergence task. Anxiety-like behaviour was determined in mice using the dark-light emergence test. Testing was carried out in a white open field (50 x 50 cm) containing a small opaque chamber (12 x 12 cm) situated in the centre. The open field was illuminated by a lamp directed at the centre of the field (120 lux focused on the floor). Mice were moved to the testing room 1 hour prior to behavioural testing and they were introduced into the unfamiliar test environment by placing them into the small chamber and recording their behaviour over 5 minutes with a video camera. The total time spent outside the chamber was then quantified by reviewing the video recording."}, "adult male mice [4]": {"test_system": "adult male mice", "test": "Y maze working memory test", "type": "in vivo", "details": "mice from dams exposed to LCM vs control", "procedure": "as §1\nY maze. The Y maze used had three equal sized arms (8 x 40 x 20 cm), with white opaque walls at a 120° angle from each other. After introduction to the centre of the maze, the mice was allowed to freely explore the three arms during 5 minutes, recording the number of arm entries and the number of triads in order to calculate the alternation. An entry was considered to occur when all four limbs are within the arm. The success of the triplet was taken into account when mice visited the three arms in three consecutive arm entries showing normal novelty preference and working memory."}, "[5]": {"test": "LCM and related compounds (RC) in embryos and mothers' serum by high-resolution MS/MSe", "type": "in vivo, mice", "details": "Maternal Dose 10 mg/kg", "procedure": "Samples were extracted as described previously[25] with slight modifications. Briefly, embryos were rinsed with cold saline and ultrapure water, and their wet-weight was determined. […] The mixture was vortexed vigorously for 3 min and centrifuged at 13,000 g for 5 min. The supernatant was transferred to a new Eppendorf tube and evaporated to dryness in a stream of nitrogen gas. The residue was reconstituted with 50 µL of LC-MS Ultrapure water, vortexed for 20 s and centrifuged at 13,000 g for 5 min. The supernatant was transferred to a conic micro insert to be injected onto the UHPLC system.\nMS spectra data were collected between m/z 50 and 1000, and MS/MS spectra were registered between 50-300 Da. […] The MS^e procedure was used to identify metabolites in positive ionization mode. UPLC–QTOF-MS^e detection collects data using two scan functions, providing fragment ion information without precursor ion selection. A characteristic m/z in the low energy function allows identification through the fragment ions obtained with the high collision energy function. Two functions were acquired at different collision energies: a low energy function obtained at 2 eV; and a high-energy function obtained using a collision energy ramp ranging from 15 to 30 eV and spectra data collected between m/z 50 and 800. The data station operating the software was a MassLynx version 4.1, while metabolites were identified by means of Metabolynx XS (Waters, Micromass, Manchester, UK).\nIn this work the following routes were selected for these searches: phase I metabolites Reduction (+H2), Hydroxylation (O), Hydration (+H2O), 2xHydroxylation (+O2), Deacetylation (-C2H2O) and Demethylation (-CH2); and phase II metabolites Acetylation (+C2H2O) and Glucuronide (+C6H8O6)."}}, "data": [{"smiles": "COC[C@@H](NC(C)=O)C(=O)NCc1ccccc1", "note": "[LCM, R-2-acetamido-N-benzyl-3-methoxypropionamide]", "values": [{"measurement": "immobility time (tail suspension test)", "setting": "adult male mice [1]; 40 mg/kg in utero", "value": "82.58 ± 7.38", "unit": "s"}, {"measurement": "immobility time (tail suspension test)", "setting": "adult male mice [1]; 120 mg/kg in utero", "value": "109.0 ± 7.69", "unit": "s"}, {"measurement": "postnatal somatometric development and reflexological analyses (body weight, developmental landmarks, locomotor activity, balance reflexes, suspension test)", "setting": "pups", "value": "dose-dependent delay"}, {"measurement": "time sniffing the predator's material", "setting": "adult male mice [2]; 40 mg/kg in utero", "value": "22.85 ± 4.07", "unit": "%"}, {"measurement": "time sniffing the predator's material", "setting": "adult male mice [2]; 120 mg/kg in utero", "value": "22.91 ± 2.08", "unit": "%"}, {"measurement": "time spent in the dark compartment (emergence test)", "setting": "adult male mice [3]", "value": "217.2 ± 11.19", "unit": "s"}, {"measurement": "arm alternation in Y-maze", "setting": "adult male mice [4]; p = 0.04", "value": "decrease in alternation"}, {"measurement": "locomotion in Y-maze", "setting": "adult male mice [4]; p = 0.087", "value": "mild increase in locomotion"}, {"measurement": "Embryos in which the LCM compound is present", "setting": "[5]", "value": "Embryo1 and 2"}]}]}
